Converted amounts (≈) assume the structure as drawn. Residues, ends and D or L forms follow the SMILES beside them.
What was measured:
[1] = system: Vancomycin-resistant E. faecium NCCP 11522; assay type: cell-based, Enterococcus faecium; details: Vancomycin-resistant NCCP 11522, 1 h
Experimental: (§1) The minimum bactericidal concentration (MBC) was determined as previously described with minor modifications. Briefly, bacteria were cultured in the mid-log phase and diluted to 5 × 10^5 colony-forming unit (CFU)/mL in 10 mM sodium phosphate buffer (pH 7.4) with a 1% volume of TS broth. They were incubated for 1 h with various peptides which were two-fold diluted serially from 64 μg/mL to 0 μg/mL concentrations in a 96-well plate. The samples were inoculated TS agar plate and incubated overnight at 37 °C. The value of MBC was determined at the lowest concentrations at which no colonies were identified.
We used the CFU counting method to measure antibacterial activity, with all bacteria cultured to the mid-log phase in an appropriate broth medium. Bacterial CFUs were counted after overnight culture at 37 °C on TS or LB agar plates. The MBC value and antibacterial activity in blood components were determined as previously described. Mouse and human whole blood were collected and diluted with PBS (pH 7.4) to measure the ex vivo antibacterial activity of AMPR-22. For that test, AMPR-22 (10 μg) was added to each whole blood solution and incubated at 37 °C with shaking at 200 rpm. At each time point, it was incubated with bacteria (1 × 10^3 CFU) for 30 min. Each sample was inoculated on an LB agar plate, and CFU counting was performed. […]

[2] = system: Escherichia coli ATCC 25922; assay: Modified MBC determination; assay type: cell-based; details: Table 2
Experimental: as §1
(§2) We used the CFU counting method to measure antibacterial activity, with all bacteria cultured to the mid-log phase in an appropriate broth medium. Bacterial CFUs were counted after overnight culture at 37 °C on TS or LB agar plates. The MBC value and antibacterial activity in blood components were determined as previously described. Mouse and human whole blood were collected and diluted with PBS (pH 7.4) to measure the ex vivo antibacterial activity of AMPR-22. For that test, AMPR-22 (10 μg) was added to each whole blood solution and incubated at 37 °C with shaking at 200 rpm. At each time point, it was incubated with bacteria (1 × 10^3 CFU) for 30 min. Each sample was inoculated on an LB agar plate, and CFU counting was performed. To measure the in vivo activity of AMPR-22, 1 × 10^8 CFU of bacteria were injected into BALB/c mice, and an hour later, 10 mg/kg of the test peptides were injected. Blood samples were collected by tail cut, serially diluted with PBS (pH 7.4), and inoculated on LB-agar plates, followed by CFU counting. To estimate the functional half-life of AMPR-22, 40 mg/kg of each tested peptide were injected into mice. Whole blood sampling was performed by cardiac puncture, and the plasma was isolated by centrifugation (2000× g, 15 min). The isolated plasma was incubated with bacteria (1 × 10^3 CFU) for an hour, and then the CFU counting method was performed.

[3] = system: Bacillus subtilis ATCC 6633; assay: Modified MBC determination; assay type: cell-based; details: Table 2
Experimental: as §1, §2

[4] = system: Klebsiella pneumoniae ATCC 13883; assay: Modified MBC determination; assay type: cell-based; details: Table 2
Experimental: as §1, §2

[5] = system: Enterococcus faecalis ATCC 19433; assay: Modified MBC determination; assay type: cell-based; details: Table 2
Experimental: as §1, §2

[6] = system: Acinetobacter baumannii ATCC 19606; assay: Modified MBC determination; assay type: cell-based; details: Table 2
Experimental: as §1, §2

[7] = system: Enterobacter aerogenes ATCC 13048; assay: Modified MBC determination; assay type: cell-based; details: Table 2
Experimental: as §1, §2

[8] = system: Streptomyces sindenensis ATCC 23963; assay: Modified MBC determination; assay type: cell-based; details: Table 2
Experimental: as §1, §2

[9] = system: Enterococcus faecium ATCC 19434; assay: Modified MBC determination; assay type: cell-based; details: Table 2
Experimental: as §1, §2

[10] = system: Pseudomonas aeruginosa ATCC 27853; assay type: cell-based
Experimental: as §1, §2

[11] = system: Staphylococcus aureus ATCC 29213; assay type: cell-based
Experimental: as §1, §2

[12] = system: Streptococcus pneumoniae NCCP 14585; assay type: cell-based; details: NCCP 14585, 1 h
Experimental: as §1, §2

[13] = system: Carbapenem-resistant K. pneumoniae, clinical isolate; assay type: cell-based, Klebsiella pneumoniae; details: 1 h
Source text: (§3) Acinetobacter baumannii (ATCC 19606), B. subtilis (ATCC 6633), E. aerogenes (ATCC 13048), E. coli (ATCC 25922), E. faecalis (ATCC 19433), E. faecium (ATCC 19434), K. pneumoniae (ATCC 13883), P. aeruginosa (ATCC 27853), S. aureus (ATCC 29213), S. sindenensis (ATCC 23963), and MRSA (ATCC 33591) were purchased from the American Type Culture Collection (ATCC; Gaithersburg, MD, USA). Streptococcus pneumoniae (NCCP 14585), vancomycin-resistant E. faecium (NCCP 11522), and vancomycin-resistant S. aureus (NCCP 15872) were purchased from the National Culture Collection for Pathogens (NCCP; Cheongju, Korea). The isolation and use of carbapenem-resistant bacterial strains from a patient were approved (2015AN0129) by the Institutional Review Board (IRB) of Korea University Hospital. […]
(§4) The minimum bactericidal concentration (MBC) was determined as previously described with minor modifications. […] The value of MBC was determined at the lowest concentrations at which no colonies were identified.
(§5) We used the CFU counting method to measure antibacterial activity, with all bacteria cultured to the mid-log phase in an appropriate broth medium. Bacterial CFUs were counted after overnight culture at 37 °C on TS or LB agar plates. The MBC value and antibacterial activity in blood components were determined as previously described. […]

[14] = system: Carbapenem-resistant A. baumannii, clinical isolate; assay type: cell-based, Acinetobacter baumannii; details: 1 h
Source text: as §3, §4, §5

[15] = system: Methicillin-resistant S. aureus (MRSA) ATCC 33591; assay type: cell-based, Staphylococcus aureus; details: Table 2; ATCC 33591; modified MBC
Experimental: as §1, §2

[16] = system: Vancomycin-resistant S. aureus NCCP 15872; assay type: cell-based, Staphylococcus aureus; details: Vancomycin-resistant NCCP 15872, 1 h
Experimental: as §1, §2

[17] = system: human erythrocytes; assay: Hemolysis assay; assay type: cell-based; details: 2% erythrocytes in PBS, 1 h 37 °C, absorbance 550 nm; up to / at 256 µg/mL
Experimental: For the hemolytic assay, mouse and human whole blood was diluted with PBS (pH 7.4) and centrifuged for 10 min at 500× g. After removing the supernatant and rinsing the pellet three times with PBS, we resuspended the erythrocytes in PBS at 2% volume. The blood solution was added to the solution of peptides with two-fold serial dilution on a 96-well plate. After incubation for an hour at 37 °C, the plate was centrifuged at 2500× g for 10 min, and the absorbance of the supernatant was measured at 550 nm. The PBS-treated sample was the negative control, and the 0.1% Triton X-100–treated sample was the positive control. To measure white blood cell toxicity, mouse and human PBMCs were freshly isolated as previously described, and 70% ethanol (positive control) or AMPR-22 was administered using two-fold diluted concentrations (0 to 256 μg/mL) for 30 min. To measure cell death, a LIVE/DEAD® fixable green dead cell stain kit (Thermo Fisher Scientific, Waltham, MS, USA) was used following the manufacturer′s instructions, and flow cytometry was performed using a FACS Canto II (BD Biosciences, CA, USA). The toxicity of AMPR-22 was compared with negative (PBS-treated) and positive controls, and the data were analyzed using FlowJo software (Tree Star, OR, USA).

[18] = system: Carbapenem-resistant P. aeruginosa (CRPA), clinical isolate; assay type: cell-based, Pseudomonas aeruginosa; details: 1 h
Source text: Acinetobacter baumannii (ATCC 19606), B. subtilis (ATCC 6633), E. aerogenes (ATCC 13048), E. coli (ATCC 25922), E. faecalis (ATCC 19433), E. faecium (ATCC 19434), K. pneumoniae (ATCC 13883), P. aeruginosa (ATCC 27853), S. aureus (ATCC 29213), S. sindenensis (ATCC 23963), and MRSA (ATCC 33591) were purchased from the American Type Culture Collection (ATCC; Gaithersburg, MD, USA). Streptococcus pneumoniae (NCCP 14585), vancomycin-resistant E. faecium (NCCP 11522), and vancomycin-resistant S. aureus (NCCP 15872) were purchased from the National Culture Collection for Pathogens (NCCP; Cheongju, Korea). The isolation and use of carbapenem-resistant bacterial strains from a patient were approved (2015AN0129) by the Institutional Review Board (IRB) of Korea University Hospital. CRPA, CRKP, and CRAB were clinically isolated in Korea University Hospital (Seoul, Korea). CRPA was confirmed to be resistant to piperacillin, piperacillin-tazobactam, ceftazidime, imipenem, meropenem, gentamicin, amikacin, and ciprofloxacin. CRAB was confirmed to be resistant to piperacillin, piperacillin-tazobactam, cefepime, ceftazidime, imipenem, meropenem, gentamicin, amikacin, and ciprofloxacin. CRKP was confirmed to be resistant to piperacillin-tazobactam, cefepime, ceftazidime, imipenem, gentamicin, and ciprofloxacin. All strains were stored at –80 °C in 50% glycerol and 50% Luria-Bertani (LB) or tryptic soy (TS) broth, grown on LB or TS plates, and aerated at 37 °C.
as §1, §2

Structure (SMILES): CC[C@H](C)[C@H](NC(=O)CNC(=O)[C@H](CCSC)NC(=O)CNC(=O)[C@@H](NC(=O)[C@H](C)NC(=O)[C@H](CCSC)NC(=O)[C@H](Cc1ccccc1)NC(=O)[C@@H](NC(=O)CNC(=O)[C@H](Cc1ccccc1)NC(=O)[C@H](CCCCN)NC(=O)CNC(=O)CNC(=O)[C@H](CCCCN)NC(=O)[C@H](CCCCN)NC(=O)[C@H](CCSC)NC(=O)[C@H](CCSC)NC(=O)[C@H](CCCCN)NC(=O)[C@@H](N)CCCCN)[C@@H](C)O)[C@@H](C)CC)C(=O)N[C@@H](CCCNC(=N)N)C(=O)O [AMPR-21] (H-KKMMKKGGKFGTFMAIGMGIR-OH)
- MBC Value, Vancomycin-resistant E. faecium [1]: 8 µg/mL (≈ 3.45 µM)
- MBC Value, Escherichia coli [2]: 4 µg/mL (≈ 1.73 µM)
- MBC Value, Bacillus subtilis [3]: 2 µg/mL (≈ 0.863 µM)
- MBC Value, Klebsiella pneumoniae [4]: 4 µg/mL (≈ 1.73 µM)
- MBC Value, Enterococcus faecalis [5]: 8 µg/mL (≈ 3.45 µM)
- MBC Value, Acinetobacter baumannii [6]: 4 µg/mL (≈ 1.73 µM)
- MBC Value, Enterobacter aerogenes [7]: 4 µg/mL (≈ 1.73 µM)
- MBC Value, Streptomyces sindenensis [8]: 4 µg/mL (≈ 1.73 µM)
- MBC Value, Enterococcus faecium [9]: 8 µg/mL (≈ 3.45 µM)
- MBC Value, P. aeruginosa ([10]; ATCC 27853, 1 h): 4 µg/mL (≈ 1.73 µM)
- MBC Value, Pseudomonas aeruginosa ([10]; Table 2, ATCC 27853, modified MBC): 4 µg/mL (≈ 1.73 µM)
- MBC Value, S. aureus ([11]; ATCC 29213, 1 h, pH 7.4): 8 µg/mL (≈ 3.45 µM)
- MBC Value, Staphylococcus aureus ([11]; Table 2, ATCC 29213, modified MBC): 4 µg/mL (≈ 1.73 µM)
- MBC Value, Streptococcus pneumoniae [12]: 8 µg/mL (≈ 3.45 µM)
- MBC Value, Carbapenem-resistant K. pneumoniae [13]: 8 µg/mL (≈ 3.45 µM)
- MBC Value, Carbapenem-resistant A. baumannii [14]: 2 µg/mL (≈ 0.863 µM)
- MBC Value, Methicillin-resistant S. aureus [15]: 8 µg/mL (≈ 3.45 µM)
- MBC Value, Vancomycin-resistant S. aureus [16]: 8 µg/mL (≈ 3.45 µM)
- Hemolytic activity against human erythrocytes [17]: negligible hemolytic activity
- MBC Value, CRPA [18]: 4 µg/mL (≈ 1.73 µM)
- MBC Value, Carbapenem-resistant P. aeruginosa [18]: 4 µg/mL (≈ 1.73 µM)

Reference: PMC8348110, “A Novel Peptide Derived from the Transmembrane Domain of Romo1 Is a Promising Candidate for Sepsis Treatment and Multidrug-Resistant Bacteria” (International Journal of Molecular Sciences, 2021)
